From patent US20150050682A1, “DIRECT ASSAY OF THIOREDOXIN REDUCTASE ACTIVITY” (University of Vermont and State Agricultural College, priority 2013, published 2015)

What was measured:
TR1 = assay: Immunoblot of TR1 expression after siRNA knockdown in C10 cells; assay type: cell-based, mouse; conditions: Western blot, FIG. 3E
Description: TR over-expression and gene silencing. Full length TR1 was amplified from pCMV6-XL4 vector by PCR using specific forward (5′-[…]-3′) and reverse (5′-[…]-3′) primers and subsequently cloned into pcDNA 3.1 mammalian expression vector. Insertion of WT-TR1 full-length cDNA, including the 3′ SECIS element, into pcDNA 3.1 was confirmed by sequencing using the appropriate forward and reverse primer sets (T7 Forward: BGH Reverse). WT-TR1 or empty pcDNA 3.1 vector were transfected into C10 cells according to manufacturer's protocol. Specific siRNA to TR1 (si-TR1, 5′-[…]-3′) and a control (“scramble”) RNA (5′-[…]-3′) were introduced into C10 cells following the manufacturers guidelines (Dharmacon).
Immunoblotting. Equal protein amounts from cell lysates were separated on 10% gels by SDS-PAGE. Proteins were transferred to PVDF membrane for immunoblotting, and membranes then were blocked in 5% milk (Tris buffered saline with 0.1% Tween, TBST) for 1 hr at room temperature. Anti-TR1 (1:1000) anti-Trxl (1:2000) and anti-actin (1:5000) antibodies were diluted in 5% milk/TBST and incubated with membranes for 1 hr at room temperature. […] Membranes were washed 5× with TBST and HRP secondary antibodies were detected using Enhanced Chemiluminescent™ solution and collected on X-ray film.

[1] = test system: thioredoxin reductase (TR); assay: Selenocystine TR assay (SC-TR assay); assay type: biochemical, mouse; conditions: for Inhibition of TR activity (NADPH turnover, A340): C10 whole cell lysates, FIG. 2B; for Efficiency of reduction by TR: L- versus racemic selenocystine as substrate
Method: Selenocystine TR assay. Cells were plated into 60 mm tissue culture dishes and the following day were washed with ice-cold 1× phosphate buffered saline (PBS) and lysed in the culture dish by adding either TE Buffer (50 mM Tris/HCl pH 7.5, 1 mM EDTA) or NP-40 lysis buffer (150 mM NaCl, 50 mM Tris pH 8.0, 1% NP-40, 1 μg/mL leupeptin, 1 μg/mL aprotinin, 1 mM NaF, 1 mM NaVO3, 1 mM PMSF) as indicated in the text. Cell lysates were scraped from culture dishes on ice and transferred to 1.5 mL microcentrifuge tubes. TE buffer lysates were sonicated at 4° C. for 30 sec with 1-2 sec pulses using a sonic dismembrator. TE and NP-40 lysates were centrifuged for 10 min at 14,000 rpm at 4° C. and protein concentrations of the supernatants were determined by reading the absorption at 595 nm of Bradford reagent. A total reaction volume of 100 μl was assembled in a clear 96-well round bottom microplate containing the following: (i) master mix containing 1 mM NADPH and 2 mM selenocystine (SC) in ddH2O (addition of 40 μl of master mix to 100 μl reaction volume yields final concentrations of 400 μM and 800 μM respectively), (ii) 25 μg or the largest practical amount of protein, (iii) TE or NP-40 lysis buffer. Controls for each sample included protein only control, protein and NADPH control, and protein and SC control. Control master mixes contained: (i) 2 mM NADPH in ddH2O (addition of 20 μl to 100 μl reaction volume yields final concentration of 400 μM), (ii) 2 mM SC prepared as described above (addition of 40 μl to 100 μl reaction volume yields final concentration of 800 μM).
Each master mix was separately placed into a clean, sterile pipet basin and pipetted quickly into the wells of a 96-well microplate with a multichannel pipetter making sure to avoid bubbles. This approach was used in order that each sample was exposed to the master mix at the same time to ensure homogeneity of results. The plate was read in 30 sec intervals over a 20 min time period at 340 nm on a Synergy HT Microplate Reader™ (BioTek). Because the assay monitors the consumption of NADPH at 340 nm, an activity can be calculated by using Beer's Law and an extinction coefficient of 6,220 M^−1 cm^−1 for NADPH. The activity can be reported as mol NADPH consumed per min. Bradford assays for total protein concentration determination can be performed directly in each well of the 96-well plate. If this is done, then the activity can be reported as mol NADPH consumed per min per mg of total protein. For the data presented in FIGS. 2 and 5, 1 unit of TR activity is defined as the amount of TR that will consume 1 nmol of NADPH per min.

[2] = test system: thioredoxin reductase (TR); assay: Discontinuous insulin end-point TR assay; assay type: biochemical, mouse; conditions: for Inhibition of TR activity: C10 whole cell lysates, end-point TR assay, FIG. 2A
Method: Discontinuous insulin end-point assay. Cell lysates were prepared in TE buffer as described above and the sonicated lysates were centrifuged for 10 min at 14,000 rpm at 4° C. Supernatants were transferred to fresh 1.5 mL microcentrifuge tubes and protein concentrations were determined by a Bradford assay. A total reaction volume of […] was assembled by addition of 20 μL master mix to 20 μL of 25 μM E. coli Trx solution. The master mix contained 50 mM Tris/Cl pH 7.5, 1 mM EDTA, 900 μM NADPH (257 μM final), and 4.5 mg/mL insulin (1.3 mg/mL final). After addition of all of the components to a cuvette, the reactions were incubated at room temperature for 60 min and terminated by the addition of 930 μL of 6 M guanidine•HCL containing 1 mM 5,5′-dithio-bis(2-nitrobenzoic acid) (DTNB) solution prepared in ethanol; activity was detected by reading absorbance at 412 nm in a spectrophotometer. TR activity was determined by calculating the difference between identical samples +/− Trx. Here the activity is expressed as arbitrary units as determined by the raw A412 reading. Alternatively, the number of units can be calculated by using Beer's Law and an extinction coefficient of 13,600 M^−1 cm^−1 for the TNB anion. One unit of TR activity is the amount of enzyme catalyzing the reduction of 1 μM of DTNB per min (formation of 2 μmol TNB anion).

glutathione reductase = target: T1, glutathione reductase (Homo sapiens, UniProt P00390); assay: Reduction of selenocystine by glutathione reductase in vitro; assay type: biochemical; conditions: same experimental conditions under which TR reduces selenocystine
T1 sequence (P00390 44-522): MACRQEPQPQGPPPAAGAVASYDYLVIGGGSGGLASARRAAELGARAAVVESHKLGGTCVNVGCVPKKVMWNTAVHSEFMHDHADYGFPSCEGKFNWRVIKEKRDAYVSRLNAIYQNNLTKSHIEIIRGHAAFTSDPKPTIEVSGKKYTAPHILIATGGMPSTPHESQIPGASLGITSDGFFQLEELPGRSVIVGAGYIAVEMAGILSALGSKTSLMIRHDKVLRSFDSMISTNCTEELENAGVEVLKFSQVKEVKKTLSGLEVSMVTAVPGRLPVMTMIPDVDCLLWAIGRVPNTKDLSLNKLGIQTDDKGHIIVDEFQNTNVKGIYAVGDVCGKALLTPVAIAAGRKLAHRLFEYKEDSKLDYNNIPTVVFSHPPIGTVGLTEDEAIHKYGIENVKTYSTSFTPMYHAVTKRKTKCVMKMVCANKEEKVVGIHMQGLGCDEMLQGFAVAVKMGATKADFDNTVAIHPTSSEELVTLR

Question: For “siRNA: Specific siRNA to TR1 (si-TR1, 5′-CCAUAGAGGGCGAAUUUAAUU-3′) (listed as RNA, chemistry not given here)”, which “TR1 protein expression after knockdown” value (TR1) is on record?
Answer: reduced the expression of TR1 for up to 48 hrs

Question: What about the “TR activity after knockdown of TR1” value ([1]; C10 cells transfected with siRNA, SC-TR assay, FIG. 3A) of the same molecule?
Answer: reduced TR activity below control levels

Question: `CC(=O)OC[C@H]1O[C@@H]([S-])[C@H](OC(C)=O)[C@@H](OC(C)=O)[C@@H]1OC(C)=O.CCP(CC)CC.[Au+]` [auranofin] was tested. Which “Sensitivity of TR activity to inhibitor, TE buffer versus NP-40 buffer” value ([1]; lysates from treated C10 cells prepared in TE buffer or NP-40 lysis buffer, FIG. 4) did it give?
Answer: equivalent

Question: Which results are given for `C=CC=O` [acrolein]?
Answer: Inhibition of TR activity in cells over expressing TR1 and TR2 ([2]; C10 cells transfected with TR1 and TR2, TE buffer lysates, end-point assay, FIG. 2C): inhibited to an equal extent; Inhibition of TR activity [2]: inhibition of total TR activity; Inhibition of TR activity ([2]; listed as Acrolein): completely inhibits; Inhibition of TR activity in cells over expressing TR1 and TR2 ([1]; C10 cells transfected with TR1 and TR2, TE buffer lysates, SC-TR assay, FIG. 2D): inhibited to an equal extent; Inhibition of TR activity (NADPH turnover, A340) ([1]; SC-TR assay): complete inhibition; Inhibition of TR activity (NADPH turnover, A340) ([1]; SC-TR assay, listed as Acrolein): completely inhibits

Question: How did the “Efficiency of reduction by TR” value [1] turn out when `N[C@@H](C[Se][Se]C[C@H](N)C(=O)O)C(=O)O` (racemic) [racemic selenocystine, selenocystine] was run?
Answer: equal efficiencies

Question: How did the “Reduction of substrate by glutathione reductase” value (glutathione reductase) turn out when `N[C@@H](C[Se][Se]C[C@H](N)C(=O)O)C(=O)O` [selenocystine] was run?
Answer: does not reduce

Question: `N[C@@H](C[Se][Se]C[C@H](N)C(=O)O)C(=O)O` [L-selenocystine] was tested. Which “Efficiency of reduction by TR” value [1] did it give?
Answer: equal efficiencies
